The values that follow come from patent publication US8889123B2, “Compositions and soft tissue replacement methods” (Allergan, Inc., priority 2010, dated 2014).

Assay [1] deals with FGF-2. Kind of assay: Incisional wound model, FGF-2 expression in skin wound tissue by Western blot. It counts as in vivo, Sprague-Dawley rats. The following applies: topical 0.004% twice daily vs vehicle. An excerpt: (§1) To test whether the compounds of Formula I promote the formation of blood vessels, and incisional wound model was employed over a 14-day period. Sprague-Dawley rats (180-200 g) were anesthetized, the backs shaved, and a 2-cm long incision was made on the back skin of rats under sterile conditions, reaching the deep fascia. The wound was immediately closed with 4-0 sutures. The animals were topically treated with vehicle or Compound 1 at 0.004% twice daily. The vehicle contains ethanol 30%, propylene glycol 12%, dipropylene glycol 5%, benzyl alcohol 5%, glycerol 3% and normal saline 45%. Biopsy samples of skin wound tissues were analyzed with Western blots day-7 and day-14 post-surgery. Tissue samples about 1 mm thick were taken from both sides of the wound. Protein was extracted, and FGF-2/VEGF expression was monitored, with Western blot analysis.

In assay [2] the test system is FGF-2. Kind of assay: Oral ulcer wound model, FGF-2 up-regulation. It counts as in vivo.
Assay [3] deals with VEGF. Kind of assay: Oral ulcer wound model, VEGF up-regulation. The class given is in vivo.
Assay [4] has as its system VEGF. Description: Incisional wound model, VEGF expression in skin wound tissue by Western blot. The following applies: topical 0.004% twice daily vs vehicle. It counts as in vivo, Sprague-Dawley rats.
Excerpt: as §1
For orientation: A western blot detects proteins with antibodies after separation by electrophoresis.

As for `CC1(C)C(=O)[C@H](C/C=C\CCCC(=O)O)[C@@H](/C=C/[C@H](O)CCc2sc3ccccc3c2Cl)[C@@H]1O` [Compound 1], the “enhanced expression of FGF-2, normalized with β-actin” value with FGF-2 [1] (day-7, P=0.004) was found to be 60%. In the assay with FGF-2 [1] (whole study period (day-14), P=0.04), the “increase in FGF-2 synthesis over the whole study period” value was “persisted for the whole study period”. Moreover, in the assay on FGF-2 [2], the “up-regulation of FGF-2” value is given as “up-regulation”. Further, the “up-regulation of VEGF” value with VEGF [3] was “up-regulation”. In the assay on VEGF [4] (day-7, P=0.039), the “VEGF expression increase, normalized with β-actin” value turned out to be 25%. For the same molecule, the “increase in VEGF synthesis by day-14” value in the assay on VEGF [4] (day-14) was “returned to the baseline”.
